Laboratory results taken from patent publication US20130303605A1, “EXTERNAL COMPOSITION FOR SKIN CONTAINING MANASSANTIN B AS ACTIVE INGREDIENT AND THE USE THEREOF FOR SKIN WHITENING” (Amorepacific Corporation, priority 2006, published 2013).

What was measured:
[1] = tested on: melan-a cells; assay: Inhibition of melanosome transfer at cell level (optical microscope observation); type: cell-based, mouse; settings: various concentrations, after 4 days, optical microscope (FIG. 1)
Procedure: Melan-a Cells, Immortalized Mouse Melanocytes, Were cultured to a confluency of 90% in 10% fetal bovine serum-containing RPMI 1640 medium in a 10% CO2 incubator, while the medium was replaced with fresh medium at 3-day intervals.
The melan-a cells cultured in the step 1 were separated using 0.25% trypsin-EDTA and spread on a 6-well plate at a density of 3×10^5 cells/well. Then, the cells were left to stand for 24 hours.

[2] = tested on: melanophilin and myosin 5a; assay: Inhibition of binding between melanophilin and myosin 5a (plate binding, chemiluminescence); settings: his-GFP-mlphCT on nickel-coated plate, Flag-MyosinVa GT, chemiluminescence (FIG. 2)
From the text: Proteins required in the test were produced in large amounts using a suitable system (E. coli) or baculovirus. Herein, the designed proteins essentially included domains known to be required for protein interaction and contained GST, His tag or flag tag such that the produced proteins could be easily purified and isolated. Each of a histidine tagged-GFP-melanophilin recombinant protein and a Flag-MyosinVa recombinant protein, which were to be used as bait proteins, were expressed in a baculovirus system, cells containing the proteins were disrupted, and then extracts were prepared. Flag-MyosinVa GT was prepared into an extract with PBS TG buffer solution, and then purified by flag-affinity chromatography.
The his-GFP-mlphCT protein prepared in the step 1 was bound to a nickel-coated plate through reaction. To the plate, binding partner Flag-MyosinVa GT was bound, and then an M2 antibody recognizing the flag was bound. The plate was subjected to color development reaction by chemiluminescence to measure the degree of binding between the proteins.

[3] = biological target: T1, tyrosinase (Mus musculus, UniProt P11344); assay: Tyrosinase activity inhibition in melanocyte lysate (L-DOPA, absorbance 490 nm); type: biochemical; settings: melan-a cell lysate, 1 hour with various concentrations, absorbance at 490 nm (FIG. 3)
T1 construct: disrupted with 0.1M phosphate buffer (containing 1% triton x-100); endogenous in cells; host or cells: cultured melanocytes (melan-a), cell lysate supernatant
T1 sequence (P11344 19-533): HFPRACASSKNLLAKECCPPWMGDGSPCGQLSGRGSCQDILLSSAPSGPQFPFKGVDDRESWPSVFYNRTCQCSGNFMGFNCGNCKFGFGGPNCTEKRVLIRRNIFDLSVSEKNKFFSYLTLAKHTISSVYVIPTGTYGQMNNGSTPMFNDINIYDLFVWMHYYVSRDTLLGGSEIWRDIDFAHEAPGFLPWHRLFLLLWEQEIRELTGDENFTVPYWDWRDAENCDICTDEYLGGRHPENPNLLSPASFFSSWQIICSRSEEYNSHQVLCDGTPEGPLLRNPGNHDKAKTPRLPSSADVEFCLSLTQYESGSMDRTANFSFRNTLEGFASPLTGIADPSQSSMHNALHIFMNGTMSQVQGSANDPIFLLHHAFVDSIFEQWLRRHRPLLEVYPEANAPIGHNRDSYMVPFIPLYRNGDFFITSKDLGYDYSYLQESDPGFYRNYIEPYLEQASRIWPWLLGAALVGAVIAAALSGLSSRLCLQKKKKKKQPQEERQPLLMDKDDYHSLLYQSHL
Procedure: Melanocytes were cultured in the same manner as in the step 1 of Test Example 1.
The cells cultured in the step 1 were washed once with cold PBS, and then disrupted with 0.1M phosphate buffer (containing 1% triton x-100). Then, the cells were centrifuged at 1400 rpm for 20 minutes, and the cell supernatant was isolated. 40 μg of the protein thus prepared was mixed with various concentrations of manassantin B and allowed to react for 1 hour. The reaction material was treated with 2 mg/ml of L-DOPA solution and left to stand 37° C.

[4] = tested on: melan-a cells and SP-1 cells; assay: Inhibition of melanin synthesis in coculture of melanocytes and keratinocytes; type: cell-based, mouse
Procedure: Melanocytes were cultured in the same manner as in the step 1 of Test Example 1. Mouse keratinocytes SP-1 cells were cultured to a confluency of […] in 8% fetal bovine serum-containing s-MEM medium in a 10% CO2 incubator, while the medium was replaced with fresh medium at 3-days intervals.
The melan-a cells and SP-1 cells cultured in the step were separated with 0.25% Trypsin-EDTA and spread together on a 12-well plate at a ratio of 1:10 at cell densities of 1×10^4 cells/well for melan-a and 1×10^5 cells/well for SP-1. Then, the cells were left to stand for 24 hours. The cells were treated with manassantin B at various concentrations, and after 5 days, the cells were collected with 1N NaOH. The collected cells were measured for absorbance at 405 nm and measured for protein concentration using the Lowry method.

[5] = tested on: acyl CoA cholesterol acyltransferase; settings: Korean Patent Application No. 10-2003-0080397; cited from earlier work

In the case of `COc1ccc([C@@H](O)[C@@H](C)Oc2ccc([C@H]3O[C@H](c4ccc(O[C@H](C)[C@H](O)c5ccc6c(c5)OCO6)c(OC)c4)[C@H](C)[C@H]3C)cc2OC)cc1OC` [manassantin B], the “configuration of the cells / distribution (transfer) of melanosomes” value [1] is reported as “melanosomes were gathered together around the nuclei”, the “degree of binding between melanophilin and myosin 5a” value [2] is reported as “inhibited the binding” and the “inhibition of tyrosinase activity” value [3] is reported as “did not directly inhibit”. For the same compound, the inhibition at 0.02 ppm ([4]; Mus musculus, 120 h, coculture melan-a:SP-1 1:10, 5 days, manassantin B concentration of 0.02 ppm) was about 50%, the “inhibition of melanin synthesis” value ([4]; coculture melan-a:SP-1 1:10, various concentrations, 5 days (FIG. 4)) was “inhibited melanin synthesis in a concentration-dependent manner” and the “inhibition of activity of acyl CoA cholesterol acyltransferase” value [5] was “inhibit the activity of acyl CoA cholesterol acyltransferase”.
